Reference: publication PMC3914206

Assays:
Assay type in all cases: binding
Conditions in all cases: Compound Concentration 10 µM
panel of 442 kinases [1] = molecular target: T1, panel of 442 kinases (Homo sapiens, UniProt Q9BVS4)
T1 construct: purchased KINOMEscan
Text: (§1) We assessed the selectivity of members of this scaffold using the KINOMEscan methodology across a near comprehensive panel of 442 kinases [[18,27]].

panel of 442 kinases [2] = molecular target: T2, panel of 442 kinases (Homo sapiens, UniProt P50750)
T2 construct: purchased KINOMEscan
Text: as §1

panel of 442 kinases [3] = molecular target: T3, panel of 442 kinases (Homo sapiens, UniProt P09619)
T3 construct: purchased KINOMEscan
Text: as §1

panel of 442 kinases [4] = molecular target: T4, panel of 442 kinases (Homo sapiens, UniProt Q9Y4K4)
T4 construct: purchased KINOMEscan
Text: as §1

T4 sequence (Q9Y4K4 whole entry): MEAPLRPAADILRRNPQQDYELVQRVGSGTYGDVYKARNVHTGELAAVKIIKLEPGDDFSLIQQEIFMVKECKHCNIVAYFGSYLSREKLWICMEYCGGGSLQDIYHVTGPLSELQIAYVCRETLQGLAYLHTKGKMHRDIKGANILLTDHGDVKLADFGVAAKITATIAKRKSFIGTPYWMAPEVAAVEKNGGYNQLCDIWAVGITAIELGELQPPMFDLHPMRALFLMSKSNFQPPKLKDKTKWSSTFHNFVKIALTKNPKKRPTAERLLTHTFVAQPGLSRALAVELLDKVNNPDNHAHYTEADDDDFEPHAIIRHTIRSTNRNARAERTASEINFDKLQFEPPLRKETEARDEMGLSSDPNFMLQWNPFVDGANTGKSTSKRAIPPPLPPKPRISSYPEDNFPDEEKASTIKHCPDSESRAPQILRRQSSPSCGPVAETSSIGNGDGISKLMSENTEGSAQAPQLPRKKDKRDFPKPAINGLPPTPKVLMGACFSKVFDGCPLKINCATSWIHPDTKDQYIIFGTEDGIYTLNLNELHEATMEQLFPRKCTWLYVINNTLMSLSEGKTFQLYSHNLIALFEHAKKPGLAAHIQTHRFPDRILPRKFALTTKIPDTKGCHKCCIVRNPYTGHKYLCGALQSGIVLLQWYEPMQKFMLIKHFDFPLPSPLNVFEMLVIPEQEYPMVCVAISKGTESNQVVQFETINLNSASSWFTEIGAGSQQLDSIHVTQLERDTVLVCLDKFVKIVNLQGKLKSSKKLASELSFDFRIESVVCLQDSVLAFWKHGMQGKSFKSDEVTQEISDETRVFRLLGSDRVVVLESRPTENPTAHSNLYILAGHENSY
T2 sequence (P50750 whole entry): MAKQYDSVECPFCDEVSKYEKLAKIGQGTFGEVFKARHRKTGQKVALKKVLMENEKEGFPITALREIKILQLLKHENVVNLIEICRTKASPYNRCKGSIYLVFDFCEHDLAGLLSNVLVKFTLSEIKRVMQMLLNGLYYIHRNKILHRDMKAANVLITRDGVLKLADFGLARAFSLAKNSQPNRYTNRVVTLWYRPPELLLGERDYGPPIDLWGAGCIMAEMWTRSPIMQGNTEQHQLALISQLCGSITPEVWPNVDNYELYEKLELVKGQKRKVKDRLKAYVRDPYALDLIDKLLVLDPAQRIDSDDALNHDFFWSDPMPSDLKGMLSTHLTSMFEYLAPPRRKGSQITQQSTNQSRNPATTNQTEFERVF
T1 sequence (Q9BVS4 whole entry): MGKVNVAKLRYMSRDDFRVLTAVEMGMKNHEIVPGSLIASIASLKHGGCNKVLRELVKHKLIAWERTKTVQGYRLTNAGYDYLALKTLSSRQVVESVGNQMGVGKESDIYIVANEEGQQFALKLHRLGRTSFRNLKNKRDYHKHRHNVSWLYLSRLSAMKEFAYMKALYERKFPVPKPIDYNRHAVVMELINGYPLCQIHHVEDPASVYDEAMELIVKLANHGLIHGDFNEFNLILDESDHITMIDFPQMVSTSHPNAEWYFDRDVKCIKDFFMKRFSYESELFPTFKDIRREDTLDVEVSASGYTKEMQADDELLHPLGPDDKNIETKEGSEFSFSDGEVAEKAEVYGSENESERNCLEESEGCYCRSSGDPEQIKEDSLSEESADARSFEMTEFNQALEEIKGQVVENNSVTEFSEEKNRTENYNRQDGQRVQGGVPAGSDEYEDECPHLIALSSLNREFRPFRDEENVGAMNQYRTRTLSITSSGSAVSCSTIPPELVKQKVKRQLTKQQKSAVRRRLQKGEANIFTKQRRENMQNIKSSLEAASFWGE
T3 sequence (P09619 33-1106): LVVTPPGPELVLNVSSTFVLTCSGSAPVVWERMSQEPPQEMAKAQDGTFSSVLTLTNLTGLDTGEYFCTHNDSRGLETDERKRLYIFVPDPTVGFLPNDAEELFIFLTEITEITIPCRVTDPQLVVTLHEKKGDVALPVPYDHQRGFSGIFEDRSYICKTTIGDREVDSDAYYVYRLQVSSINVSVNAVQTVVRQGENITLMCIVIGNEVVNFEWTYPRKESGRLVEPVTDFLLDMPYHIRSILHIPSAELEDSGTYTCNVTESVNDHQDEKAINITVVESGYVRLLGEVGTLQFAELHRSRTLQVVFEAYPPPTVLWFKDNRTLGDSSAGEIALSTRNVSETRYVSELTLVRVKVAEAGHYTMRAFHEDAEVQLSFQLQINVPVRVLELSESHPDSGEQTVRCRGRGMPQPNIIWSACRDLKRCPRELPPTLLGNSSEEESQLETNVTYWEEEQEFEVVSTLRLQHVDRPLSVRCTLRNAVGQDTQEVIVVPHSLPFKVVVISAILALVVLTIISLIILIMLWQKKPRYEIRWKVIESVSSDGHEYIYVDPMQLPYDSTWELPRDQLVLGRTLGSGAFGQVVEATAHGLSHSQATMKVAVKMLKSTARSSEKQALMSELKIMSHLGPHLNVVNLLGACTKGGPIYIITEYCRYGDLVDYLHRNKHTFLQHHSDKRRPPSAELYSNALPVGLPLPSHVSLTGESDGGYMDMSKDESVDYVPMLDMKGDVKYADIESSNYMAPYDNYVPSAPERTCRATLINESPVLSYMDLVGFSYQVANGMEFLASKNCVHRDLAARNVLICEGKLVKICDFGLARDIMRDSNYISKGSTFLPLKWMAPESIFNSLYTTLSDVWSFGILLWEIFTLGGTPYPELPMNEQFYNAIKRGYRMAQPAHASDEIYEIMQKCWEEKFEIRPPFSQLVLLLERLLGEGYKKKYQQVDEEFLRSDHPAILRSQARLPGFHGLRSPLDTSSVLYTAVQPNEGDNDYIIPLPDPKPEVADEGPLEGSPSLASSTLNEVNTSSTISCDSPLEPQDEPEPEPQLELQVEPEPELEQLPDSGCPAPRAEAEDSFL

Compound | KINOMEscan: RIOK2 (panel of 442 kinases [1]) | KINOMEscan: CDK9 (panel of 442 kinases [2]) | KINOMEscan: PDGFRB (panel of 442 kinases [3]) | KINOMEscan: MAP4K5 (panel of 442 kinases [4])
COc1cc(C(=O)N2CCC(N3CCN(C)CC3)CC2)ccc1Nc1ncc2c(n1)N(C)c1ccccc1C(=O)N2C [15 (LRRK2-IN-1)] | 100 | 100 | 100 | 100
CCOc1cc(C(=O)N2CCC(N3CCN(C)CC3)CC2)ccc1Nc1ncc2c(n1)N(C1CCCC1)c1ccccc1C(=O)N2C [Compound 26] | 81 | 100 | 100 | 95
COc1cc(C(=O)N2CCC(N3CCN(C)CC3)CC2)ccc1Nc1ncc2c(n1)N1CCc3cccc(c31)C(=O)N2C [Compound 24] | 81 | 96 | 67 | 72
COc1cc(C(=O)N2CCC(N3CCN(C)CC3)CC2)ccc1Nc1ncc2c(n1)N(C1CCCC1)c1ccccc1C(=O)N2C [Compound 25, 11-cyclopentyl-2-((2-methoxy-4-(4-(4-methylpiperazin-1-yl)piperidine-1-carbonyl)phenyl)amino)-5-methyl-5H-benzo[e]pyrimido[5,4-b][1,4]diazepin-6(11H)-one] | 93 | 98 | 83 | 96
